Source: patent US20220233133A1, “HUMAN TACTILE PREPULSE […]” (President and Fellows of Harvard College, priority 2019, published 2022)

Experiments:
[1] = tested on: Mecp2 conditional mutant mice; test: Tactile PPI performance in Mecp2 conditional mutant mice; assay type: in vivo; conditions: 30 minutes following administration of 2 mg/kg, versus saline
Procedure: (§1) Tactile PPI performance in Mecp2 or Shank3 conditional mutant mice, and their control littermates, 30 minutes following administration of either saline or 2 mg/kg compound 5.

[2] = tested on: Shank3 conditional mutant mice; test: Tactile PPI performance in Shank3 conditional mutant mice; assay type: in vivo; conditions: 30 minutes following administration of 2 mg/kg, versus saline
Procedure: as §1

ASD mouse models = conditions: range of ASD mouse models (Orefice et al., 2019, Cell 178, 867-886); cited from earlier work

Structure (SMILES) | hairy skin hypersensitivity (tactile PPI performance) [1] | hairy skin hypersensitivity (tactile PPI performance) [2] | anxiety (ASD mouse models)
NC1C=C(C(=O)O)CCC1 (stereo not drawn) [compound 5, 3-aminocyclohex-1-ene-1-carboxylic acid] | reduces hairy skin hypersensitivity | reduces hairy skin hypersensitivity | –
Nc1[nH]c(=O)nc2nc[nH]c12 [isoguanine] | – | – | useful to reduce
